The text below walks through data of patent US12583900B2, “Peptide conjugates and methods of use” (The Scripps Research Institute, priority 2019, dated 2026).

What all share (type): in vivo, mouse
Test [1] has as its system C57BL/6J mice. As to the kind of experiment: Oral glucose tolerance test 6 h, 48 h, 96 h post dose (GLP-1R/GCGR agonists). Particulars: 48 h after administration. The method, then: C57BL/6J mice (n=6/group) between 10-12 weeks old were fasted overnight and then administrated with 5 mL/kg of each peptide in PBS (pH=8.2) by s.c. route. After 6 hours, mice were orally or intraperitoneally administrated with 2 g of glucose solution per kg body weight and their tail blood glucose levels were measured before (0 min) and after glucose challenge for 2 hours. Follow up OGTT were also performed at 48 h, and 96 h post-original dose in same mice after overnight fast.
The efficacy of the GLP-1R/GCGR dual agonist 135 was then evaluated in an oral glucose tolerance test (OGTT) in wilt type mice.

For test [2], the system named is DIO mice (C57BL/6). Description: DIO mice study, daily s.c. dosing 21 days, plasma and liver analyses (28-week old). An excerpt:
All animal care and experimental procedures were approved by the Institutional Animal Care and Use Committee (IACUC) of California Institute for Biomedical Research (Calibr) and strictly followed the NIH guidelines for humane treatment of animals. The results are expressed as means S.E., and the data were compared using the unpaired Student's t test. Where appropriate, data were compared using repeated measures or one-way analysis of variance, followed by the Student-Newman-Keuls post hoc test. Incremental area under the curve (AUC) analyses for plasma glucose was calculated using GraphPad Prism 6.
DIO mice (C57BL/6, male, 28-week old) were randomized based on their body weight and were treated with daily subcutaneous injections of peptide or vehicle (n=7/group). Body weight and food intake were monitored daily throughout the study. At the end of the experiment, mice were sacrificed, and visceral fat mass were weighed. Collected plasma was used for cholesterol level determination according to the manufacturer's guide (cholesterol assay kit, Abcam, Cambridge, England) and triglyceride level using a triglyceride colorimetric assay kit (Cayman chemical, Ann Arbor, Michigan).
Collected plasma was used for cholesterol level determination according to the manufacturer's guide (cholesterol assay kit, Abcam, Cambridge, England). Briefly, plasma was diluted using cholesterol assay buffer and then reacted with the same volume of reaction mix containing cholesterol assay buffer, cholesterol probe, enzyme mix and cholesterol esterase. After incubation at 37° C. for 1 hour, the absorbance at 560 nm was measured using an Envision multilabel plate reader (PerkinElmer, Waltham, MA). Subsequently, the concentration of cholesterol in plasma was calculated according to a standard curve.
Collected plasma was used for triglyceride level determination using a triglyceride colorimetric assay kit (Cayman chemical, Ann Arbor, Michigan). 5 μL of plasma samples or standard were plated into a 384 well plate and followed by adding 75 μL of diluted enzyme buffer to each well. The mixture was incubated at room temperature for 15 min, and the absorbance was read at 560 nm using an Envision plate reader (PerkinElmer, Waltham, MA). The concentration of triglyceride in plasma was calculated using a standard curve.
Terminal serum analytes including total cholesterol, triglyceride, alanine aminotransferase (ALT), aspartate aminotransferase (AST), alkaline phosphatase (ALP) were determined by Alfa Wassermann Vet Axcel® clinical analyzer. Hepatic triglycerides were measured in liver homogenates generated with a colorimetric triglyceride kit (Cayman Chemical). Paraformaldehyde-fixed liver were paraffin-embedded, sectioned and stained with hematoxylin-eosin and Picro-Sirius red by HistoTox Labs (Boulder, CO). All histological assessment (steatosis, fibrosis scoring) were performed by a certified histopathologist blind to treatment (HistoTox Labs) based on classification outlined by Kleiner et al.^3

The test system of test [3] is C57BL/6J mice. Description: Oral glucose tolerance test 2 h, 72 h, 96 h, […] post dose (GLP-1R/GIPR agonists). The method, then: C57BL/6J mice (n=6/group) between 10-12 weeks old were fasted overnight and then administrated with 5 mL/kg of each peptide in PBS (pH=8.2) by s.c. route. […]

With `CCCCCCCCCCCCCCCC(=O)N[C@@H](CCC(=O)NCCCC[C@H](NC(=O)[C@H](CC(=O)O)NC(=O)[C@H](CO)NC(=O)[C@@H](NC(=O)[C@H](Cc1ccccc1)NC(=O)[C@@H](NC(=O)CNC(=O)[C@H](CCC(N)=O)NC(=O)[C@H](CO)NC(=O)[C@@H](N)Cc1c[nH]cn1)[C@@H](C)O)[C@@H](C)O)C(=O)N[C@@H](CO)C(=O)N[C@@H](CCC(=O)O)C(=O)N[C@@H](Cc1ccc(O)cc1)C(=O)N[C@@H](CC(C)C)C(=O)N[C@@H](CC(=O)O)C(=O)N[C@@H](CO)C(=O)N[C@@H](CCC(=O)O)C(=O)N[C@@H](CCCNC(=N)N)C(=O)N[C@@H](C)C(=O)N[C@@H](CCCNC(=N)N)C(=O)N[C@@H](CC(=O)O)C(=O)N[C@@H](Cc1ccccc1)C(=O)N[C@H](C(=O)N[C@@H](C)C(=O)N[C@@H](Cc1c[nH]c2ccccc12)C(=O)N[C@@H](CC(C)C)C(=O)N[C@@H](CCC(=O)O)C(=O)N[C@@H](C)C(=O)NCC(=O)NCC(=O)O)C(C)C)C(=O)O` [cotadutide], in test [1], the “glucose handling in OGTT” value is “did not exhibit any improvement over the vehicle”. Further, the “plasma glucose excursions in a fasted state” value in test [2] (day 21) was “significant decrease”. Moreover, in test [2] (vs vehicle), the “liver to bodyweight ratio” value was “significantly decreased”, the liver triglyceride level result is “significantly decreased” and the liver weight result is reported as “significantly decreased”.
In the case of semaglutide, the “OGTT blood glucose levels as measured by the AUC vs vehicle” value (from here on “OGTT blood glucose levels … vs vehicle”) in test [3] (2 hours post dose) is “significant decrease”. Further, the “fasted glucose levels vs vehicle” value in test [3] (2 hours post treatment) is on record as “significant decrease”. Besides, the “OGTT blood glucose levels … vs vehicle” value in test [3] (72 hours post dose) was “significant decrease”. In addition, the “fasted glucose levels vs vehicle” value in test [3] (72 hours post treatment) was “significant decrease”. Further, the “OGTT blood glucose levels … vs vehicle” value in test [3] (96 hours post dose) was “significant decrease”. In addition, the “fasted glucose levels vs vehicle” value in test [3] (96 hours post treatment) is reported as “significant decrease”. Besides, in test [3] ([…] post dose), the “OGTT blood glucose levels … vs vehicle” value is on record as “significant decrease”. The “fasted glucose levels vs vehicle” value in test [3] ([…] post treatment) was “significant decrease”. In test [2] (DIO mice, daily s.c.), the “food consumption over 20 days vs vehicle” value is “reduction”; the “total bodyweight and percent change from initial bodyweight over 21 days” value is reported as “decrease”. The “plasma glucose excursions in a fed state” value in test [2] (day 20) is “significant decrease”. Also, in test [2] (day 21), the “OGTT glucose levels over time and AUC” value is “significant decrease”; the “plasma glucose excursions in a fasted state” value is listed as “significant decrease”. In test [2] (terminal, vs vehicle), the “plasma level of ALP” value is recorded as “significantly reduced”, the “plasma level of ALT” value is listed as “significantly reduced”, the “plasma level of cholesterol” value is given as “significantly reduced” and the “plasma level of triglycerides” value is recorded as “significantly reduced”. In test [2] (vs vehicle), the fat weight entry is listed as “significantly reduced”, the “liver to bodyweight ratio” value is given as “significantly decreased”, the liver triglyceride level entry is reported as “significantly decreased” and the liver weight entry is given as “significantly decreased”. The steatosis grade entry in test [2] (vs vehicle) is “reduced”.
